Results as given in ChEMBL document CHEMBL3044888, “Fungicidal activity of indole derivatives against some plant pathogenic fungi” (J Pestic Sci, 2010).
In brackets after ≈: the same amount, converted by molar mass.

Key:
Format in all cases: functional, organism-based
Fusarium culmorum = experiment: Fungicidal activity against Fusarium culmorum assessed as inhibition of hyphal growth by radial growth test
[1] = test system: Globisporangium debaryanum; experiment: Fungicidal activity against Pythium debaryanum assessed as inhibition of hyphal growth by radial growth test
Rhizoctonia solani = experiment: Fungicidal activity against Rhizoctonia solani assessed as inhibition of hyphal growth by radial growth test
Macrophomina phaseolina = experiment: Fungicidal activity against Macrophomina phaseoli assessed as inhibition of hyphal growth by radial growth test

Row | SMILES | IC50 (Fusarium culmorum) [µg/mL] | IC50 [1] [µg/mL] | IC50 (Rhizoctonia solani) [µg/mL] | IC50 (Macrophomina phaseolina) [µg/mL]
1 | O=C(O)CCCc1c[nH]c2ccccc12 | 576 (≈ 2830 µM) | 249 (≈ 1230 µM) | 644 (≈ 3170 µM) | 699 (≈ 3440 µM)
2 | O=C(c1ccccc1)n1c(-c2ccccc2)cc2ccccc21 | 99.9 (≈ 336 µM) | 81 (≈ 272 µM) | 122 (≈ 411 µM) | 355 (≈ 1190 µM)
3 | CC(=O)n1cc(CCCC(=O)O)c2ccccc21 | 26.6 (≈ 108 µM) | 19 (≈ 77.5 µM) | 117 (≈ 477 µM) | 59 (≈ 241 µM)
4 | O=C(O)CCCc1cn(C(=O)c2ccccc2)c2ccccc12 | 513 (≈ 1670 µM) | 488 (≈ 1590 µM) | 663 (≈ 2160 µM) | 448 (≈ 1460 µM)
5 | O=C(O)Cc1cn(C(=O)c2ccccc2)c2ccccc12 | 523 (≈ 1870 µM) | 171 (≈ 612 µM) | 1240 (≈ 4450 µM) | 572 (≈ 2050 µM)
6 | COCC(=O)N(c1c(C)cccc1C)C(C)C(=O)OC (stereo not drawn) [METALAXYL] | 192 (≈ 687 µM) | 211 (≈ 755 µM) | 231 (≈ 827 µM) | 173 (≈ 619 µM)
7 | O=C(O)Cc1c[nH]c2ccccc12 [INDOLE-3-ACETIC ACID] | 420 (≈ 2400 µM) | 301 (≈ 1720 µM) | 1010 (≈ 5760 µM) | 807 (≈ 4610 µM)
